From publication PMC7024302, “Ultrashort Cationic Lipopeptides–Effect of N-Terminal Amino Acid and Fatty Acid Type on Antimicrobial Activity and Hemolysis” (Molecules, 2020)
Values after ≈ are worked out from the molar mass of the structure shown. Residues, ends and D or L forms follow the SMILES beside them.

Columns and labels:
[1] = design: method as in earlier work; details: cited from earlier work
S. aureus ATCC 25923 = format: cell-based, Staphylococcus aureus; details: ATCC 25923, 18 h
Summary of the method: (§1)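 CLSI broth microdilution; MHB; inoculum 5 × 10^5 CFU/mL; lipopeptides 0.5–256 µg/mL; 37 °C, 18 h; endpoint visible growth inhibition; n = 3.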

[2] = test system: S. aureus ATCC 33591 (MRSA); format: cell-based, Staphylococcus aureus; details: ATCC 33591, 18 h
Summary of the method: as §1

E. faecium ATCC 700221 = format: cell-based, Enterococcus faecium; details: ATCC 700221, 18 h
Summary of the method: as §1

P. aeruginosa ATCC 9027 = format: cell-based, Pseudomonas aeruginosa; details: ATCC 9027, 18 h
Summary of the method: as §1

K. aerogenes ATCC 13048 = format: cell-based, Klebsiella aerogenes; details: ATCC 13048, 18 h
Summary of the method: as §1

[3] = test system: K. pneumoniae ATCC 700603; format: cell-based, Klebsiella pneumoniae; details: ATCC 700603, 18 h
Summary of the method: as §1

[4] = test system: human red blood cells (hRBCs); format: cell-based; details: red cells of human, 1 h
Summary of the method: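 Fresh EDTA-anticoagulated human RBCs, PBS-washed, at 4% (v/v) final were exposed to lipopeptides at 0.5–256 µg/mL for 1 h at 37 °C. Released haemoglobin in supernatant read at 540 nm; PBS as 0% and 1% Triton X-100 as 100% haemolysis. Triplicates.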

C. albicans ATCC 10231 = format: cell-based, Candida albicans; details: ATCC 10231, 24 h, pH 7
[5] = test system: A. baumannii ATCC BAA-1605; format: cell-based, Acinetobacter baumannii; details: ATCC BAA-1605, 18 h
Summary of the method: as §1

[6] = Determination of peptide hydrophobicity with RP-HPLC (adjusted retention time); format: physicochemical; details: RP-HPLC C18, linear 10–55% acetonitrile over 60 min, 0.1% TFA, 25.0 °C, UV 214 nm, triplicate; for tR’: Table 3, adjusted retention time as hydrophobicity
Summary of the method: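 Peptides at 1 g/L in water with 0.1% TFA run on a C18 column (3.0 × 100 mm, 5 µm). Elution with a linear 10–55% acetonitrile gradient over 60 min, 0.1% TFA in both eluents, 0.5 mL/min, 25.0 ± 0.1 °C. Detection at 214 nm, in triplicate.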

Row | Compound | pKa of the side chain [1] | MIC SA (S. aureus ATCC 25923) | MIC S [2] | MIC E1 (E. faecium ATCC 700221) | MIC PA (P. aeruginosa ATCC 9027) | MIC E2 (K. aerogenes ATCC 13048) | MIC K [3] | HC50 [4] | MIC CA (C. albicans ATCC 10231) | MIC A [5] | tR’ [6] | Adjusted retention time ([6]; Table 2, nC = carbon atoms in fatty acid chain)
1 | NCCCC[C@H](N)C(=O)O [Lys, lysine] | 10.67 |  |  |  |  |  |  |  |  |  |  | 
2 | CCCCCCCCCCCCCC(=O)N[C@@H](Cc1ccc(O)cc1)C(=O)N[C@@H](CCCNC(=N)N)C(=O)N[C@@H](CCCNC(=N)N)C(N)=O [compound 102, C14-YRR-NH2] (HELM PEPTIDE1{[CCCCCCCCCCCCCC(=O)[*:2]].Y.R.R.[am]}$$$$V2.0) |  | 4 µg/mL (≈ 5.69 µM) | 4 µg/mL (≈ 5.69 µM) | 4 µg/mL (≈ 5.69 µM) | 8 µg/mL (≈ 11.4 µM) | 64 µg/mL (≈ 91 µM) | 32 µg/mL (≈ 45.5 µM) | 46.52 (±5.24) µg/mL | 4 µg/mL (≈ 5.69 µM) | 32 µg/mL (≈ 45.5 µM) | 42.73 min | 
3 | CCCCCCCCCCCCCC(=O)N[C@@H](CC(N)=O)C(=O)N[C@@H](CCCNC(=N)N)C(=O)N[C@@H](CCCNC(=N)N)C(N)=O [compound 62, C14-NRR-NH2] (HELM PEPTIDE1{[CCCCCCCCCCCCCC(=O)[*:2]].N.R.R.[am]}$$$$V2.0) |  | 16 µg/mL (≈ 24.5 µM) | 16 µg/mL (≈ 24.5 µM) | 8 µg/mL (≈ 12.2 µM) | 32 µg/mL (≈ 48.9 µM) | 128 µg/mL (≈ 196 µM) | 128 µg/mL (≈ 196 µM) | 64.37 (±2.23) µg/mL | 16 µg/mL (≈ 24.5 µM) | 32 µg/mL (≈ 48.9 µM) | 38.71 min | 
4 | CCCCCCCCCCCCCC(=O)N[C@@H](CCCC)C(=O)N[C@@H](CCCNC(=N)N)C(=O)N[C@@H](CCCNC(=N)N)C(N)=O [compound 66, C14-NleRR-NH2] (HELM PEPTIDE1{[CCCCCCCCCCCCCC(=O)[*:2]].[Nle].R.R.[am]}$$$$V2.0) |  | 4 µg/mL (≈ 6.13 µM) | 8 µg/mL (≈ 12.3 µM) | 8 µg/mL (≈ 12.3 µM) | 4 µg/mL (≈ 6.13 µM) | 32 µg/mL (≈ 49 µM) | 32 µg/mL (≈ 49 µM) | 37.54 (±1.39) µg/mL | 4 µg/mL (≈ 6.13 µM) | 64 µg/mL (≈ 98 µM) |  | 46.681 min
